Patent US20240358693A1, “METHODS OF TREATING PAIN” (Aisa Pharma, Inc., priority 2023, published 2024)

Tested on: participants with SSc-RP
Experiment: Scleroderma Health Assessment Questionnaire (SHAQ): disability indices and visual analog scales
Format: in vivo, human
Description: The standard, validated, patient reported outcome measures tool for SSc patients, the Scleroderma Health Assessment Questionnaire (SHAQ), will be used to assess the participant qualify of life. Details are attached in the Appendix. The participant quality of life will be scored, and a disability index calculated for each questionnaire completed by the patient at Screening and each in-clinic visit. The absolute change in participant quality of life from baseline to the end of each dosing period will be calculated similar to frequency data as before.
The SHAQ includes a Raynaud's VAS, which will be reported at screening and each in-clinic visit. The absolute change in Raynaud-VAS, assessed by the participants response to the SHAQ question ‘In the past 7 days, how much have your Raynaud's interfered with your daily activities?’ at baseline and the end of each dosing period will be calculated similar to frequency data as before.
The SHAQ is used to calculate a Disability Index to assess the participant qualify of life. The eight categories assessed by the Disability Index are 1) dressing and grooming, 2) arising, 3) eating, 4) walking, 5) hygiene, 6) reach, 7) grip, and 8) common daily activities. For each of these categories, patients report the amount of difficulty they have in performing two or three specific activities.
There are four possible responses for the Disability Index questions: • Without any difficulty=0 • With some difficulty=1 • With much difficulty=2 • Unable to do=3. • The highest score reported by the patient for any component question of the eight categories determines the score for that category. • If a component question is left blank or the response is too ambiguous to assign a score, then the score for that category is determined by the remaining completed question(s). • If all component questions are blank or if more than one answer is given, then follow up with the respondent is required. • If the respondent's mark is between the response columns, then move it to the closest one. If it's directly between the two, move it to the higher one.
Each of the disability items on the SHAQ has a companion aids/devices variable that is used to record what type(s) of assistance, if any, the participant uses for his/her usual activities. These variables (see below) are coded as follows: • 0=No assistance is needed. • 1=A special device is used by the patient in his/her usual activities. • 2=The patient usually needs help from another person. • 3=The patient usually needs BOTH a special device AND help from another person.
The scoring variables and scoring rules permit the computation of two disability indices, the Standard Disability Index and the Alternative Disability Index.
This question results in a new set of category scores that are computed by adjusting the score for each category, if necessary, based on the patient's use of an aid or device or assistance for that category. If either devices and/or help from another person are checked for a category, the score is set to “2”, unless the score is already “3” (i.e., scores of “0” or “1” are increased to “2”). For example, if the highest score for the dressing category is “1”, and the patient says they use a device for dressing, the computed category score would be “2”. The sum of the computed categories scores is then calculated and divided by the number of categories answered. This gives a score in the 0 to 3 range.
The aid and device variables are not used to calculate the alternative disability index; it is calculated by adding the scores for each of the categories and dividing by the number of categories answered. This gives a score in the 0 to 3 range.
The standard, validated, patient reported outcome measures tool for SSc patients, the SHAQ, was collected at the time points specified in the study schedules (FIG. 2 and FIGS. 4A and 4B) to assess the participant's quality of life. The SHAQ included a Raynaud's VAS that will also be reported separately.

[1] = Pooled Cilnidipine (10 mg or 20 mg) (N = 7), n 6
[2] = Pooled Cilnidipine (N = 6), Day 12, Modified ITT, SSc patients, Part A
[3] = Pooled Cilnidipine (N = 7), sensitivity analysis, Modified ITT, Part A

COCCOC(=O)C1=C(C)NC(C)=C(C(=O)OC/C=C/c2ccccc2)C1c1cccc([N+](=O)[O-])c1 (centres unmarked) [Cilnidipine, cilnidipine]
SHAQ patient reported disease severity, In-Clinic Visit (Day 12), Median (Pooled Cilnidipine (10 mg or 20 mg) (N = 7)): 1.200 | SHAQ patient reported disease severity, Percent Change from Baseline, Mean [1]: −59.80% | SHAQ patient reported disease severity, Percent Change from Baseline, Median [1]: −55.86% | SHAQ Alternative Disability Index: Change from Baseline, Mean [2]: 0.000 | SHAQ Alternative Disability Index: Change from Baseline, Median [2]: −0.063 | SHAQ Alternative Disability Index: In-Clinic Visit (Day 12), Mean [2]: 0.438 | SHAQ Alternative Disability Index: In-Clinic Visit (Day 12), Median [2]: 0.188 | SHAQ Alternative Disability Index: Percent Change from Baseline, Mean [2]: −12.90% | SHAQ Alternative Disability Index: Percent Change from Baseline, Median [2]: −22.22% | SHAQ Standard Disability Index: Change from Baseline, Mean [2]: −0.063 | SHAQ Standard Disability Index: Change from Baseline, Median [2]: 0.000 | SHAQ Standard Disability Index: In-Clinic Visit (Day 12), Mean [2]: 0.500 | SHAQ Standard Disability Index: In-Clinic Visit (Day 12), Median [2]: 0.188 | SHAQ Standard Disability Index: Percent Change from Baseline, Mean [2]: −25.00% | SHAQ Standard Disability Index: Percent Change from Baseline, Median [2]: −16.67% | SHAQ Visual Analogue Scale - Breathing Problems: Change from Baseline, Mean [2]: −0.617 | SHAQ Visual Analogue Scale - Breathing Problems: Change from Baseline, Median [2]: −0.400 | SHAQ Visual Analogue Scale - Breathing Problems: In-Clinic Visit (Day 12), Mean [2]: 1.200 | SHAQ Visual Analogue Scale - Breathing Problems: In-Clinic Visit (Day 12), Median [2]: 0.200 | SHAQ Visual Analogue Scale - Breathing Problems: Percent Change from Baseline, Mean [2]: −8.17% | SHAQ Visual Analogue Scale - Breathing Problems: Percent Change from Baseline, Median [2]: −41.33% | SHAQ Visual Analogue Scale - Finger Ulcers: Change from Baseline, Mean [2]: −0.750 | SHAQ Visual Analogue Scale - Finger Ulcers: Change from Baseline, Median [2]: −0.350 | SHAQ Visual Analogue Scale - Finger Ulcers: In-Clinic Visit (Day 12), Mean [2]: 0.617 | SHAQ Visual Analogue Scale - Finger Ulcers: In-Clinic Visit (Day 12), Median [2]: 0.350 | SHAQ Visual Analogue Scale - Finger Ulcers: Percent Change from Baseline, Mean [2]: −17.08% | SHAQ Visual Analogue Scale - Finger Ulcers: Percent Change from Baseline, Median [2]: −50.82% | SHAQ Visual Analogue Scale - Intestinal Problems: Change from Baseline, Mean [2]: −1.083 | SHAQ Visual Analogue Scale - Intestinal Problems: Change from Baseline, Median [2]: 0.000 | SHAQ Visual Analogue Scale - Intestinal Problems: In-Clinic Visit (Day 12), Mean [2]: 1.300 | SHAQ Visual Analogue Scale - Intestinal Problems: In-Clinic Visit (Day 12), Median [2]: 0.950 | SHAQ Visual Analogue Scale - Intestinal Problems: Percent Change from Baseline, Mean [2]: −15.53% | SHAQ Visual Analogue Scale - Intestinal Problems: Percent Change from Baseline, Median [2]: −7.06% | SHAQ Visual Analogue Scale - Overall Disease Severity: Change from Baseline, Mean [2]: −1.350 | SHAQ Visual Analogue Scale - Overall Disease Severity: Change from Baseline, Median [2]: −1.550 | SHAQ Visual Analogue Scale - Overall Disease Severity: In-Clinic Visit (Day 12), Mean [2]: 1.733 | SHAQ Visual Analogue Scale - Overall Disease Severity: In-Clinic Visit (Day 12), Median [2]: 1.300 | SHAQ Visual Analogue Scale - Overall Disease Severity: Percent Change from Baseline, Mean [2]: −51.76% | SHAQ Visual Analogue Scale - Overall Disease Severity: Percent Change from Baseline, Median [2]: −51.72% | SHAQ Visual Analogue Scale - Pain: Change from Baseline, Mean [2]: −0.500 | SHAQ Visual Analogue Scale - Pain: Change from Baseline, Median [2]: −0.250 | SHAQ Visual Analogue Scale - Pain: In-Clinic Visit (Day 12), Mean [2]: 1.617 | SHAQ Visual Analogue Scale - Pain: In-Clinic Visit (Day 12), Median [2]: 1.400 | SHAQ Visual Analogue Scale - Pain: Percent Change from Baseline, Mean [2]: −29.23% | SHAQ Visual Analogue Scale - Pain: Percent Change from Baseline, Median [2]: −48.78% | SHAQ Visual Analogue Scale - Raynaud's: Change from Baseline, Mean [2]: −0.550 | SHAQ Visual Analogue Scale - Raynaud's: Change from Baseline, Median [2]: −0.600 | SHAQ Visual Analogue Scale - Raynaud's: In-Clinic Visit (Day 12), Mean [2]: 1.667 | SHAQ Visual Analogue Scale - Raynaud's: In-Clinic Visit (Day 12), Median [2]: 1.250 | SHAQ Visual Analogue Scale - Raynaud's: Percent Change from Baseline, Mean [2]: −18.64% | SHAQ Visual Analogue Scale - Raynaud's: Percent Change from Baseline, Median [2]: −38.67% | SHAQ Standard Disability Index: Baseline, Mean [3]: 0.482 | SHAQ Standard Disability Index: Baseline, Median [3]: 0.375 | SHAQ Standard Disability Index: Change from Baseline, Mean [3]: −0.054 | SHAQ Standard Disability Index: Change from Baseline, Median [3]: 0.000 | SHAQ Standard Disability Index: Day 12, Mean [3]: 0.429 | SHAQ Standard Disability Index: Day 12, Median [3]: 0.125 | SHAQ Standard Disability Index: Percent Change from Baseline, Mean [3]: −25.00% | SHAQ Standard Disability Index: Percent Change from Baseline, Median [3]: −16.67% | SHAQ VAS Breathing Problems: Baseline, Mean [3]: 1.557 | SHAQ VAS Breathing Problems: Baseline, Median [3]: 0.200 | SHAQ VAS Breathing Problems: Change from Baseline, Mean [3]: −0.529
